{
  "source": "patent US20060194815A1",
  "about": "“Methods and compositions for modulating serum cortisol levels” (priority 2003, published 2006)",
  "key": {"[1]": {"system": "Y1 mouse adrenal tumor cells", "experiment": "dbcAMP-induced 20á-hydroxyprogesterone synthesis in Y1 cells (RIA)", "format": "cell-based", "method": "(§1) Culture media were then changed and cells were stimulated with 1 mM dbcAMP and the treatment for 24 to 48 hours. […] The synthesis of 20-OH progesterone and progesterone in Y1 and MA-10 cell media respectively were measured by RIA (Brown et al., 1992). H295R human adrenal tumor cells were seeded in 48-well plates at 10^5 cells/well and incubated for 24 hours. […] At the end of the incubation time period, cells were treated with 1 mM dbcAMP for 48 hours. Cortisol levels in the media were determined by radioimmunoassay as previously described (Amri et al., 1996)."}, "[2]": {"system": "H295R human adrenal tumor cells", "experiment": "dbcAMP-induced cortisol synthesis in H295R cells (RIA)", "format": "cell-based", "method": "as §1"}, "[3]": {"system": "MA-10 mouse Leydig tumor cells", "experiment": "dbcAMP-induced progesterone synthesis in MA-10 cells (RIA)", "format": "cell-based", "method": "as §1"}, "[4]": {"system": "peripheral-type benzodiazepine receptor (PBR)", "experiment": "PBR radioligand binding assay ([3H]PK 11195) in procaine-treated cells", "conditions": "1 μM procaine, 48 hour treatment", "method": "Radioligand binding assays were performed as previously described (Papadopoulos et al., 1990, J. Biol. Chem. 265, 3772-3779). In brief, cells were scrapped from culture flasks into PBS, dispersed by trituration, and centrifuged at 1200×g for 5 min. The cells were resuspended in PBS to a final concentration of 10-50 μg protein/100 μl. Saturation binding studies were performed in a final volume of 300 μl in the presence of the radioligand [^3H]PK 11195 (specific activity 83.5 Ci/mmol; NEN Life Science Products) at the indicated concentrations. Nonspecific binding was determined in the presence of 6 μM of the homologous non-radioactive ligand. After 180 min incubation at 4° C., the assays were stopped by filtration through Whatman GF/C filters (Clifton, N.J.) and washed with 10 ml PBS. Bound radioactivity was determined by liquid scintillation counting. Bound [^3H]PK 11195 and [^3H]cholesterol were quantified by liquid scintillation spectrometry. Dissociation constants (Kd), the number of binding sites (Bmax) and Hill coefficients (nH) for PK 11195 and cholesterol were determined by Curve-Fit (Prism version 3.0, GraphPad Software Inc., San Diego, Calif.)."}, "[5]": {"target": "T1, HMG-CoA reductase (Mus musculus, UniProt Q01237)", "T1 construct": "endogenous in cells; host or cells: Y1 mouse adrenal tumor cells (Brij 96 extract; sonicated homogenate for the direct test)", "T1 sequence (Q01237 1-887)": "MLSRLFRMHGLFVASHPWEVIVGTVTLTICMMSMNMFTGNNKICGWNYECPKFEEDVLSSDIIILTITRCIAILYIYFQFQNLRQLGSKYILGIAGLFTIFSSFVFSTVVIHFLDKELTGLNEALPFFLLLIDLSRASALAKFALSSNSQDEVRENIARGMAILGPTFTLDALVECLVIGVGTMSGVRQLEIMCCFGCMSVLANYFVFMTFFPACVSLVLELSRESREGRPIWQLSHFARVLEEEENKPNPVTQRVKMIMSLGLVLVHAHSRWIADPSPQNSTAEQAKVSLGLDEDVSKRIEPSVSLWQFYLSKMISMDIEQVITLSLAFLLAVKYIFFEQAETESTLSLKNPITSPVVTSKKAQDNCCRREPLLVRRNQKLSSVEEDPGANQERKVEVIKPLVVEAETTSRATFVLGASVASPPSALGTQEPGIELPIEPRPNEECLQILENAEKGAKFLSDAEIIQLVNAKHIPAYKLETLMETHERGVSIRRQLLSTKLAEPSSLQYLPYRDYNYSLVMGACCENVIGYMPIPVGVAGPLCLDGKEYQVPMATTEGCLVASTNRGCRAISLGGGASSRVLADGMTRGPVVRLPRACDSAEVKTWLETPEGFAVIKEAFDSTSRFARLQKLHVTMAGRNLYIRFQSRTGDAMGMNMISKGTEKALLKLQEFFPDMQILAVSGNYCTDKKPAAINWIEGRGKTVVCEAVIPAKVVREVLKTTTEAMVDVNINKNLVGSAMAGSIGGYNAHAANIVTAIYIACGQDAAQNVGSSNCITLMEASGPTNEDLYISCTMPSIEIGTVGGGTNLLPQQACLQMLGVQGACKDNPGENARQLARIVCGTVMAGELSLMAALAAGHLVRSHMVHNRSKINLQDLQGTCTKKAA", "experiment": "Direct effect on HMG-CoA reductase activity in sonicated Y1 cell homogenates", "format": "biochemical", "conditions": "control 10.1±0.9", "method": "Cells were washed twice with ice-cold PBS and incubated with ice-cold assay buffer (0.1M sucrose, 40 mM KH2PO4, 30 mM EDTA, 50 mM KCl, 5 mM DTT, 0.25% (v/v) of Brij 96, at pH 7.4) on ice for 20 minutes. After centrifugation for 3 minutes at 14000 g (4° C.) the supernatants were collected and used for HMG-CoA reductase activity assay. The total 150 l assay mixture contained 100-200 g protein and the NADPH-generating system (2.5 mM NADP, 20 mM glucose 6-phosphate and 20 U/ml glucose 6-phosphate dehydrogenase). The reaction was started by adding substrate (^14C-HMG-CoA, 0.1 Ci) and stopped after 45 minutes by adding 10-1 of HCl 6M. ^3H-mevalonolactone was also added to the samples as an extraction recovery marker. After an additional 30 minutes incubation time, to allow complete lactonization of the product, the mixture was centrifuged. The supernatant was applied to Bond-Elut NH2 column and eluted with 1 ml of toluene/acetone (3:1). The eluate was discarded and further 4 ml of toluene/acetone was applied to the column and collected in a scintillation vial for counting ^14C-mevalonate and 3H-mevalonolactone signals (Berkhout et al., 1990).\nIn separate experiments cells were disrupted by sonication and then treated with procaine. The direct effect of the treatment on HMG-CoA reductase activity in the homogenates was determined as described above."}},
  "data": [
    {"molecule": "CCN(CC)CCOC(=O)c1ccc(N)cc1", "note": "[procaine]", "values": [
      {"measurement": "dbcAMP-induced 20á-hydroxyprogesterone production", "setting": "[1]; Y1 cells, 1 mM dbcAMP, increasing concentrations", "value": "decreased in a dose-dependent manner"},
      {"measurement": "basal steroid formation by Y1 cells", "setting": "[1]; no dbcAMP stimulus", "value": "without affecting"},
      {"measurement": "dbcAMP-stimulated cortisol production", "setting": "[2]; H295R cells, 1 mM dbcAMP", "value": "inhibited the dbcAMP-stimulated cortisol production in a dose-dependent manner"},
      {"measurement": "basal cortisol production", "setting": "[2]; H295R cells, no dbcAMP", "value": "without effecting basal cortisol production"},
      {"measurement": "sensitivity of human adrenal tumor cells versus mouse adrenal cells", "setting": "[2]; H295R versus Y1", "value": "less sensitive"},
      {"measurement": "dbcAMP-induced progesterone synthesis", "setting": "[3]", "value": "did not affect"},
      {"measurement": "ligand binding characteristics / expression of PBR", "setting": "[4]", "value": "did not affect"},
      {"measurement": "PBR Kd of [3H]PK 11195 in procaine-treated cells", "setting": "[4]; control 1.8 nM, Kd of the radioligand, not of procaine", "value": 1.7, "unit": "nM"},
      {"measurement": "PBR Bmax ([3H]PK 11195) in procaine-treated cells", "setting": "[4]; control 27±3", "value": "29±4", "unit": "pmol/mg protein"},
      {"measurement": "ligand binding characteristics / expression of PBR", "setting": "[4]; listed as Procaine", "value": "had no effect"},
      {"measurement": "HMG-CoA reductase activity in sonicated cells", "setting": "[5]; 1 μM procaine", "value": "9.9±0.01", "unit": "pmol/min/mg protein"},
      {"measurement": "HMG-CoA reductase activity in sonicated cells", "setting": "[5]; 10 μM procaine", "value": "10.3±0.6", "unit": "pmol/min/mg protein"},
      {"measurement": "HMG-CoA reductase activity in sonicated cells", "setting": "[5]; 100 μM procaine", "value": "10.1±0.1", "unit": "pmol/min/mg protein"}
    ]}
  ]
}
